Laboratory results published in US8729054B2, “3-desoxy-2-methylene-vitamin D analogs and their uses” (Wisconsin Alumni Research Foundation, priority 2011, dated 2014).
“Also recorded” adds a separate entry of the source.

Experiments:
[1] = tested on: vitamin D-deficient rats; assay: Bone calcium mobilization (serum calcium); format: in vivo, rat; conditions: for bone calcium mobilization activity as compared to 1,25(OH)2D3: rats on low calcium diet (0.02%), four consecutive ip doses
Description: (§1) Male, weanling Sprague-Dawley rats were placed on Diet 11 (Suda et al, J. Nutr. 100:1049, 1970) (0.47% Ca)+vitamins AEK for one week followed by Diet 11 (0.02% Ca)+vitamins AEK for 3 weeks. The rats were then switched to the same diet containing 0.47% Ca for one week followed by two weeks on the same diet containing 0.02% Ca. Dose administration began during the last week on 0.02% calcium diet. Four consecutive ip doses were given approximately 24 hours apart. Twenty-four hours after the last dose, blood was collected from the severed neck and the concentration of serum calcium determined by atomic absorption spectrometry as a measure of bone calcium mobilization. The first 10 cm of the intestine was also collected for intestinal calcium transport analysis using the everted gut sac method.

[2] = tested on: 24-hydroxylase (24Ohase) gene promoter; assay: In vitro transcription assay, luciferase reporter in ROS 17/2.8 (bone) cells; format: cell-based; conditions: for transcriptional activity in bone cells as compared to 1α,25-dihydroxyvitamin D3: 24-hydroxylase gene; for EC50: ROS 17/2.8 cells, luciferase, sixteen hours after dosing, read-out: EC50, transcriptional activity in bone cells (24-hydroxylase gene)
Description: Transcription activity was measured in ROS 17/2.8 (bone) cells that were stably transfected with a 24-hydroxylase (24Ohase) gene promoter upstream of a luciferase reporter gene (Arbour et al., 1998). Cells were given a range of doses. Sixteen hours after dosing the cells were harvested and luciferase activities were measured using a luminometer. RLU=relative luciferase units.

[3] = tested on: Human promyelocytic leukemia (HL60) cells; assay: HL-60 differentiation (nitro blue tetrazolium reduction); format: cell-based; conditions: for EC50: HL60 cells, four days after treatment, NBT reduction
Description: The study drugs were dissolved in ethanol and the concentrations determined using UV spectrophotometry. Serial dilutions were prepared so that a range of drug concentrations could be tested without changing the final concentration of ethanol (≦0.2%) present in the cell cultures.
Human promyelocytic leukemia (HL60) cells were grown in RPMI-1640 medium containing 10% fetal bovine serum. The cells were incubated at 37° C. in the presence of 5% CO2.
HL60 cells were plated at 1.2×10^5 cells/ml. Eighteen hours after plating, cells in duplicate were treated with drug. Four days later, the cells were harvested and a nitro blue tetrazolium reduction assay was performed (Collins et al., 1979; J. Exp. Med. 149:969-974). The percentage of differentiated cells was determined by counting a total of 200 cells and recording the number that contained intracellular black-blue formazan deposits. Verification of differentiation to monocytic cells was determined by measuring phagocytic activity (data not shown).

[4] = target: T1, full-length recombinant rat vitamin D receptor (Rattus norvegicus, UniProt P13053); assay: Vitamin D receptor binding, competition with [3H]-1,25(OH)2D3; conditions: full-length recombinant rat VDR; for Ki: 1 nM radioligand
T1 construct: Full-length recombinant rat receptor was expressed in E. coli BL21 (DE3) Codon Plus RIL cells; histidine tag (C); made in house; host or cells: E. coli BL21 (DE3) Codon Plus RIL
T1 sequence (P13053 1-423): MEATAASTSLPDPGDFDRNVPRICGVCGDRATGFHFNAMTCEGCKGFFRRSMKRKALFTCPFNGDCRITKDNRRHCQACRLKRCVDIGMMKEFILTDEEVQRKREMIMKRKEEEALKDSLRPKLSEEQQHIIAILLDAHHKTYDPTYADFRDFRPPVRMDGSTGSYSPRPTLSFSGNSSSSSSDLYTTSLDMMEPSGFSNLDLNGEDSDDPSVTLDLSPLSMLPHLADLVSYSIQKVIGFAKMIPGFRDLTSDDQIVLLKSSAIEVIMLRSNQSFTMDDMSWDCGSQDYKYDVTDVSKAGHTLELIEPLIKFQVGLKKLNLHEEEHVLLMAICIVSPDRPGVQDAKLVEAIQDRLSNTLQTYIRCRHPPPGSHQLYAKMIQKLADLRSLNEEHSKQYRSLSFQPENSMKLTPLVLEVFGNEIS
Description: Full-length recombinant rat receptor was expressed in E. coli BL21 (DE3) Codon Plus RIL cells and purified to homogeneity using two different column chromatography systems. The first system was a nickel affinity resin that utilizes the C-terminal histidine tag on this protein. The protein that was eluted from this resin was further purified using ion exchange chromatography (S-Sepharose Fast Flow). Aliquots of the purified protein were quick frozen in liquid nitrogen and stored at −80° C. until use. For use in binding assays, the protein was diluted in TEDK50 (50 mM Tris, 1.5 mM EDTA, pH 7.4, 5 mM DTT, 150 mM KCI) with 0.1% Chaps detergent. The receptor protein and ligand concentration was optimized such that no more than 20% of the added radiolabeled ligand was bound to the receptor.
Radiolabeled and unlabeled ligands were added to 100 mcl of the diluted protein at a final ethanol concentration of ≦10%, mixed and incubated overnight on ice to reach binding equilibrium. The following day, 100 mcl of hydroxylapatite slurry (50%) was added to each tube and mixed at 10-minute intervals for 30 minutes. The hydroxylapaptite was collected by centrifugation and then washed three times with Tris-EDTA buffer (50 mM Tris, 1.5 mM EDTA, pH 7.4) containing 0.5% Titron X-100. After the final wash, the pellets were transferred to scintillation vials containing 4 ml of Biosafe II scintillation cocktail, mixed and placed in a scintillation counter. Total binding was determined from the tubes containing only radiolabeled ligand.

[5] = tested on: vitamin D-deficient rats; assay: Intestinal calcium transport (everted gut sac method); format: in vivo, rat; conditions: rats on low calcium diet (0.02%), four consecutive ip doses
Description: as §1

Row | SMILES | mobilization of bone calcium as compared to native hormone at the same dose ([1]; 87 pmol/day for 4 consecutive days) | bone calcium mobilization activity as compared to 1,25(OH)2D3 [1] | transcriptional activity in bone cells as compared to 1α,25-dihydroxyvitamin D3 [2] | EC50 [2] | potency on HL-60 cell differentiation as compared to 1,25(OH)2D3 [3] | EC50 ([3]; Homo sapiens, HL-60, 96 h) | affinity to the receptor as compared to 1,25(OH)2D3 [4] | Ki [4] | serum calcium levels ([1]; at the dosages tested) | EC50 [3] | mobilization of bone calcium as compared to native hormone at the same dose ([1]; 780 pmol/day for 4 consecutive days) | intestinal calcium transport activity as compared to 1,25(OH)2D3 [5] | potency on HL-60 cell differentiation relative to 1,25(OH)2D3 ([3]; compared with 1,25(OH)2D3)
1 | C=C1CC/C(=C/C=C2\CCC[C@]3(C)[C@@H]([C@H](C)CCCC(C)(C)O)CC[C@@H]23)C(=C)[C@H]1O [3D-QM, (20R)-3-desoxy-1α,25-dihydroxy-2-methylene-vitamin D3] | only slightly less mobilization of bone calcium than the native hormone | about the same potency as the native hormone | about the same transcriptional activity | 0.2 nM | about the same potency as 1,25(OH)2D3 | 1 nM | about the same affinity | 0.4 nM |  |  |  |  | 
2 | C=C1/C(=C\C=C2/CCC[C@]3(C)[C@@H]([C@H](C)CCCC(C)(C)O)CC[C@@H]23)C[C@@H](O)C[C@@H]1O [1α,25-dihydroxyvitamin D3, reference compound] |  |  |  |  |  |  |  |  | increased serum calcium levels | 3 nM |  |  | 
3 | C=C1CC/C(=C/C=C2\CCC[C@]3(C)[C@@H]([C@@H](C)CCCC(C)(C)O)CC[C@@H]23)C(=C)[C@H]1O [3D-QMS, (20S)-3-desoxy-1α,25-dihydroxy-2-methylene-vitamin D3] |  | more potent than the native hormone; also recorded: significantly more activity in mobilizing calcium from bone than 1,25(OH)2D3 | about the same transcriptional activity | 0.03 nM |  | 0.08 nM | about the same affinity | 0.3 nM |  |  | higher mobilization of bone calcium than the native hormone | more potent than 1,25(OH)2D3 | about 40 times
